Our source for the IC50 values is US20180057505A1, “BICYCLIC HETEROARYL COMPOUNDS USEFUL AS INHIBITORS OF THE PAR-2 SIGNALING PATHWAY” (VERTEX PHARMACEUTICALS INCORPORATED, priority 2015, published 2018).

Assay type in all cases: cell-based
Test [1] deals with Thrombin-stimulated Ca2+ response in HT-29 cells. Nature of the test: Ca FLIPR TETRA assay, ANTAGONIST mode, activator 1 U/mL Thrombin. The following applies: Homo sapiens; HT-29 cells, activator 1 U/mL Thrombin. A digest of the protocol: (§1)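 Antagonist mode, HT-29: cells O/N 37 °C, 1% FBS; calcium 5 dye 45 min 37 °C + 15 min RT; cpd (DMSO, HBSS-diluted) 30 min RT; activator at final conc. (8 μM SLIGKV / 1 U/mL thrombin / 3.1 U/mL trypsin / 0.6 μM UTP); FLIPR Tetra Ca2+ read.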

In test [2] the target is T1, PAR2 (HT-29 cells) (Homo sapiens, UniProt P55085).
T1 construct: host or cells: HT-29
T1 sequence (P55085 26-397): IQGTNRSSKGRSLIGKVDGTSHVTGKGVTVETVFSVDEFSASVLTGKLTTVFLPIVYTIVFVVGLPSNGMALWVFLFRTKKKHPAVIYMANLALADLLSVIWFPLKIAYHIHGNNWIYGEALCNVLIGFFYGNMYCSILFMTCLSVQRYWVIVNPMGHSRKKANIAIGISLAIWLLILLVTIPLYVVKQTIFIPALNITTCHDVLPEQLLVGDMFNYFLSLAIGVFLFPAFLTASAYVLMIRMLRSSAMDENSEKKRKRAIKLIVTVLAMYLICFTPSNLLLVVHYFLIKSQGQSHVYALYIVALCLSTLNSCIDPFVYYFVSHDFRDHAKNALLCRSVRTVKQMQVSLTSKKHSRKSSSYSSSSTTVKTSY
Description: Ca FLIPR TETRA assay, ANTAGONIST mode, activator 3.1 U/mL trypsin. The conditions noted are these: HT-29 cells, activator 3.1 U/mL trypsin; maximal antagonist concentration per Method (A: 0.1, 1 or 2 μM; B: 50 μM). A digest of the protocol:
as §1

Test [3] concerns the target T1, PAR2 (HT-29 cells). Description: Ca FLIPR TETRA assay, ANTAGONIST mode, activator 8 μM SLIGKV. The conditions noted are these: HT-29 cells, activator 8 μM SLIGKV; maximal antagonist concentration per Method (A: 0.1, 1 or 2 μM; B: 50 μM). A digest of the protocol:
as §1

The subject of test [4] is UTP-stimulated Ca2+ response in HT-29 cells. Description: Ca FLIPR TETRA assay, ANTAGONIST mode, activator 0.6 μM UTP. The following applies: Homo sapiens; HT-29 cells, activator 0.6 μM UTP. A digest of the protocol: as §1

On to `CN1CCN(C(=O)c2cc3nc(-c4ccc(Cl)cc4)cc(C(C)(C)C)c3o2)C(C)(C)C1=O` [Example I-236], for which the IC50 (in general, the concentration needed to halve the response being measured) is greater than 2000 nM in test [1], 5 nM in test [2], 3.5 nM in test [3] and greater than 2000 nM in test [4].
Turning to `[2H]C([2H])([2H])N1CCN(C(=O)c2cc3nc(-c4ccc(Cl)c(F)c4)cc(C(C)(C)C)c3o2)C(C)(C)C1=O` [Example I-237], the IC50 in test [1] was greater than 2000 nM; in test [2] it was 2.4 nM; in test [3], 1.8 nM; in test [4], greater than 2000 nM.
In the case of `[2H]C([2H])([2H])N1CCN(C(=O)c2cc3nc(-c4cccc(Cl)c4)cc(C(C)(C)C)c3o2)C(C)(C)C1=O` [Example I-238], the IC50 in test [1] is greater than 2000 nM; in test [2], 28 nM; in test [3] it was 18 nM; in test [4] it was greater than 2000 nM.
As to `[2H]C([2H])([2H])N1CCN(C(=O)c2cc3nc(-c4ccc(F)c(Cl)c4)cc(C(C)(C)C)c3o2)C(C)(C)C1=O` [Example I-239], the half-inhibitory concentration (IC50) in test [1] was greater than 2000 nM; in test [2], 5.4 nM; in test [3] it was 6.1 nM; in test [4] it was greater than 2000 nM.
`[2H]C([2H])([2H])N1CCN(C(=O)c2cc3nc(-c4ccc(Cl)cc4)cc(C(C)(C)C)c3o2)C(C)(C)C1=O` [Example I-240]: the IC50 in test [1] is greater than 2000 nM; in test [2], 1.8 nM; in test [3] it was 2.7 nM; in test [4], greater than 2000 nM.
`CN1CCN(C(=O)c2cc3nc(-c4ccc(Cl)c(F)c4)cc(C(C)(C)C)c3o2)C(C)(C)C1=O` [Example I-241]: the concentration for half-maximal inhibition (IC50) was greater than 2000 nM in test [1], 1.6 nM in test [2], 1.7 nM in test [3] and greater than 2000 nM in test [4].
In the case of `CN1CCN(C(=O)c2cc3nc(-c4cccc(Cl)c4)cc(C(C)(C)C)c3o2)C(C)(C)C1=O` [Example I-242], the IC50 in test [1] is greater than 2000 nM; in test [2], 24 nM; in test [3] it was 19 nM; in test [4], greater than 2000 nM.
As to `CN1CCN(C(=O)c2cc3nc(-c4ccc(F)c(Cl)c4)cc(C(C)(C)C)c3o2)C(C)(C)C1=O` [Example I-243], the IC50 in test [1] is greater than 2000 nM; in test [2] it was 7.4 nM; in test [3], 4 nM; in test [4], greater than 2000 nM.
Consider `CC(C)(C)c1cc(-c2cccc(Cl)c2)nc2cc(C(=O)N3CCNC(=O)C3(C)C)oc12` [Example I-244], for which the IC50 in test [1] is greater than 2000 nM; in test [2], 27 nM; in test [3], 19 nM; in test [4], greater than 2000 nM.
With `CC[C@@H](C)c1cc(-c2ccc(F)cc2)nc2cc(C(=O)N3CCNC(=O)C3(C)C)oc12` [Example I-245], the IC50 in test [1] is greater than 2000 nM; in test [2], 4.8 nM; in test [3], 2.5 nM; in test [4] it was greater than 2000 nM.
As for `CC[C@H](C)c1cc(-c2ccc(F)cc2)nc2cc(C(=O)N3CCNC(=O)C3(C)C)oc12` [Example I-246], the concentration for half-maximal inhibition (IC50) was greater than 2000 nM in test [1], 16 nM in test [2], 11 nM in test [3] and greater than 2000 nM in test [4].
Regarding `Cc1cn[nH]c1N1CCN(C(=O)c2cc3nc(-c4ccc(F)cc4)cc(C(C)(C)C)c3o2)C(C)(C)C1=O` [Example I-247], the IC50 in test [1] is greater than 2000 nM; in test [2], 20 nM; in test [3], 12 nM; in test [4] it was greater than 2000 nM.
For `Cc1cc(N2CCN(C(=O)c3cc4nc(-c5ccc(F)cc5)cc(C(C)(C)C)c4o3)C(C)(C)C2=O)[nH]n1` [Example I-248], the IC50 in test [1] is greater than 2000 nM; in test [2], 41 nM; in test [3] it was 11 nM; in test [4], greater than 2000 nM.
`CCCC(CC)c1cc(-c2ccc(F)cc2)nc2cc(C(=O)N3CCNC(=O)C3(C)C)oc12` (centres unmarked) [Example I-249]: the half-inhibitory concentration (IC50) was greater than 2000 nM in test [1], 11 nM in test [2], 4 nM in test [3] and greater than 2000 nM in test [4].
